The source of these data is US7781393B2, “Methods for inhibiting tumor cell growth” (Dana-Farber Cancer Institute, Inc., priority 2004, dated 2010).

Structures are written as SMILES.

In this test the test system is MM cells. The experiment in a line: Gene expression and proteomic profiling of IGF-1R inhibition. Type of test: cell-based, human. To be noted: expression profiling, proteomic analyses, confirmatory assays. As to the method: Subsequent analysis of scanned image output files were analyzed with Affymetrix GeneChip Microarray Analysis Suite 5.0 software (Affymetrix), normalized and analyzed by hierarchical clustering, functional clustering and relevance network algorithms, as in previous studies. High-throughput global proteomic analysis of the signaling state of IGF-1R-inhibitor-treated MM cells was performed by multiplex-immunoblotting arrays using the KPKS-1.0 and KPSS-1.0 platforms, as previously described (Mitsiades C S et al. Semin Oncol. April 2003; 30(2): 156-60 and Mitsiades N et al. Blood. Mar. 15, 2003; 101(6): 2377-80).
Total RNA was extracted and purified with the Qiagen RNeasy kit (Qiagen, San Diego, Calif.). Five micrograms of total RNA was used in the first-strand cDNA synthesis with T7-d(T)24 primer ([…]-(dT)24) (SEQ ID NO: 1) and Superscript II (GIBCO-BRL, Rockville, Md.). The second-strand cDNA synthesis was carried out at 16° C. by adding Escherichia coli DNA ligase, E. coli DNA polymerase I, and RNase H to the reaction, followed by T4 DNA polymerase to blunt the ends of newly synthesized cDNA. The cDNA was purified through phenol/chloroform and ethanol precipitation. […] Scanned image output files were visually examined for major chip defects and hybridization artifacts and then analyzed with Affymetrix GeneChip® (array) Microarray Analysis Suite 5.0 software (Affymetrix). […]

As for `Nc1ncnc2c1c(-c1cccc(OCc3ccccc3)c1)cn2[C@H]1C[C@H](CN2CCCC2)C1` [ADW-742, trans-5-(3-benzyloxy-phenyl)-7-(3-pyrrolidin-1-ylmethyl-cyclobutyl)-7H-pyrrolo[2,3-d]pyrimidin-4-ylamine], the “proliferative/anti-apoptotic molecular events associated with exposure to IGF-1 or serum” value is listed as “suppressed”.
